Source: patent US20020137929A1, “1 - (3-heterocyclylphenyl) isothiourea, -isourea, -guanidine and -amidine herbicidal agents” (Intellectual Property Department, BASF Aktiengesellschaft, priority 1998, published 2002)

Tests used:
SETVI (Foxtail, Green) = assay: Preemergence herbicidal evaluation; format: in vivo, Setaria viridis; conditions: rated 4-5 weeks after treatment
In short: (§1)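 Greenhouse preemergence test: seed-soil mix sown on ~1 inch soil; aqueous acetone spray at equivalent of ~0.0156–0.500 kg/ha; greenhouse-held and watered; scored 0–9 visually at 4–5 weeks.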

GALAP (Galium) = assay: Preemergence herbicidal evaluation; format: in vivo, Galium aparine; conditions: rated 4-5 weeks after treatment
In short: as §1

[1] = tested on: TRZAWR (Wheat, Winter, cv Riband); assay: Preemergence herbicidal evaluation; format: in vivo, Triticum aestivum; conditions: rated 4-5 weeks after treatment
In short: as §1

[2] = tested on: ECHORC (Watergrass (Calif.)); assay: Preemergence weed control under flooded paddy conditions; format: in vivo, Echinochloa oryzoides; conditions: rated 3-4 weeks after treatment
In short: (§2)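 Seeds or propagules sown in top 0.5 cm of silt loam soil, flooded 1.5 to 3 cm above surface throughout. Compound in 50/50 v/v aqueous/acetone pipetted into flood water at about 0.0313 to 0.500 kg/ha. Visual 0-9 rating versus control after three to four weeks in greenhouse.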

[3] = tested on: IPOHE (Morningglory, Ivyleaf); assay: Postemergence herbicidal evaluation; format: in vivo, Ipomoea hederacea; conditions: postemergence
In short: (§3)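 Scores (0–9) reflect plant stand, vigor, malformation, size, chlorosis and general appearance relative to control, read 4 to 5 weeks after treatment and averaged where tests were repeated. Application: about 0.0156–0.500 kg/ha sprayed at 40 psi onto two-week seedlings.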

ECHCG (Barnyardgrass) [4] = assay: Postemergence herbicidal evaluation; format: in vivo, Echinochloa crus-galli; conditions: postemergence
In short: as §3

CASOB (Sicklepod) [5] = assay: Postemergence herbicidal evaluation; format: in vivo, Cassia obtusifolia; conditions: postemergence
In short: as §3

ABUTH (Velvetleaf) = assay: Preemergence herbicidal evaluation; format: in vivo, Abutilon theophrasti; conditions: rated 4-5 weeks after treatment
In short: as §1

CYPSE (Flatsedge) = assay: Preemergence weed control under flooded paddy conditions; format: in vivo, Cyperus serotinus; conditions: rated 3-4 weeks after treatment
In short: (§4)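 Ratings on a 0-9 visual scale cover stand, vigor, malformation, size, chlorosis and overall appearance relative to a control, taken three to four weeks post-treatment. Application was into flood water over freshly sown silt loam at roughly 0.0313 to 0.500 kg/ha.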

ECHCG (Barnyardgrass) [6] = assay: Preemergence herbicidal evaluation; format: in vivo, Echinochloa crus-galli; conditions: rated 4-5 weeks after treatment
In short: as §1

ZEAMX (Corn, Field) [7] = assay: Preemergence herbicidal evaluation; format: in vivo, Zea mays; conditions: rated 4-5 weeks after treatment
In short: as §1

[8] = tested on: IPOHE (Morningglory, Ivyleaf); assay: Preemergence herbicidal evaluation; format: in vivo, Ipomoea hederacea; conditions: rated 4-5 weeks after treatment
In short: as §1

[9] = tested on: GLXMAW (Soybean, Williams); assay: Preemergence herbicidal evaluation; format: in vivo, Glycine max, (L.) Merr. cv Williams; conditions: rated 4-5 weeks after treatment
In short: as §1

CYPIR (Rice Flatsedge) = assay: Preemergence weed control under flooded paddy conditions; format: in vivo, Cyperus iria; conditions: rated 3-4 weeks after treatment
In short: as §2

CASOB (Sicklepod) [10] = assay: Preemergence herbicidal evaluation; format: in vivo, Cassia obtusifolia; conditions: rated 4-5 weeks after treatment
In short: as §1

MOOVA (Monochoria) = assay: Preemergence weed control under flooded paddy conditions; format: in vivo, Monochoria vaginalis; conditions: rated 3-4 weeks after treatment
In short: as §4

ZEAMX (Corn, Field) [11] = assay: Postemergence herbicidal evaluation; format: in vivo, Zea mays; conditions: postemergence
In short: as §3

CCOC(=O)CN1C(=O)C(CC(=O)NS(=O)(=O)C(C)C)SC1=Nc1cc(-n2c(=O)cc(C(F)(F)F)n(C)c2=O)c(F)cc1Cl (stereo not drawn) [Compound 117, Ethyl 2-{{2-chloro-5-[3,6-dihydro-3-methyl-2,6-dioxo-4-(trifluoromethyl)-1(2H)-pyrimidinyl]-4-fluorophenyl}imino}-5-{[(isopropylsulfonyl)-carbamoyl]methyl}-4-oxo-3-thiazolidineacetate]
3.0: Preemergence herbicidal rating GALAP (GALAP (Galium); rate 0.1250 kg/ha)
0.0: Preemergence herbicidal rating SETVI (SETVI (Foxtail, Green); rate 0.0313 kg/ha) | Preemergence herbicidal rating SETVI (SETVI (Foxtail, Green); rate 0.1250 kg/ha) | Preemergence herbicidal rating SETVI (SETVI (Foxtail, Green); rate 0.2500 kg/ha) | Preemergence herbicidal rating GALAP (GALAP (Galium); rate 0.0156 kg/ha) | Preemergence herbicidal rating GALAP (GALAP (Galium); rate 0.0313 kg/ha) | Preemergence herbicidal rating GALAP (GALAP (Galium); rate 0.0625 kg/ha) | Preemergence herbicidal rating TRZAWR ([1]; rate 0.0156 kg/ha) | Preemergence herbicidal rating TRZAWR ([1]; rate 0.0313 kg/ha) | Preemergence herbicidal rating TRZAWR ([1]; rate 0.0625 kg/ha) | Preemergence herbicidal rating TRZAWR ([1]; rate 0.1250 kg/ha) | Preemergence herbicidal rating TRZAWR ([1]; rate 0.2500 kg/ha) | herbicidal effect rating, ECHORC ([2]; 0.0313 kg/ha) | herbicidal effect rating, ECHORC ([2]; 0.0625 kg/ha) | herbicidal effect rating, ECHORC ([2]; 0.1250 kg/ha) | herbicidal effect rating, ECHORC ([2]; 0.2500 kg/ha) | herbicidal rating CASOB (CASOB (Sicklepod) [5]; rate 0.0158 kg/ha) | Preemergence herbicidal rating ABUTH (ABUTH (Velvetleaf); rate 0.0156 kg/ha) | Preemergence herbicidal rating ABUTH (ABUTH (Velvetleaf); rate 0.0313 kg/ha) | Preemergence herbicidal rating ABUTH (ABUTH (Velvetleaf); rate 0.0625 kg/ha) | Preemergence herbicidal rating ECHCG (ECHCG (Barnyardgrass) [6]; rate 0.0156 kg/ha) | Preemergence herbicidal rating ECHCG (ECHCG (Barnyardgrass) [6]; rate 0.0313 kg/ha) | Preemergence herbicidal rating ECHCG (ECHCG (Barnyardgrass) [6]; rate 0.0625 kg/ha) | Preemergence herbicidal rating ECHCG (ECHCG (Barnyardgrass) [6]; rate 0.1250 kg/ha) | Preemergence herbicidal rating ECHCG (ECHCG (Barnyardgrass) [6]; rate 0.2500 kg/ha) | Preemergence herbicidal rating ZEAMX (ZEAMX (Corn, Field) [7]; rate 0.0156 kg/ha) | Preemergence herbicidal rating ZEAMX (ZEAMX (Corn, Field) [7]; rate 0.0313 kg/ha) | Preemergence herbicidal rating ZEAMX (ZEAMX (Corn, Field) [7]; rate 0.0625 kg/ha) | Preemergence herbicidal rating ZEAMX (ZEAMX (Corn, Field) [7]; rate 0.2500 kg/ha) | Preemergence herbicidal rating IPOHE ([8]; rate 0.0156 kg/ha) | Preemergence herbicidal rating IPOHE ([8]; rate 0.0313 kg/ha) | Preemergence herbicidal rating IPOHE ([8]; rate 0.0625 kg/ha) | Preemergence herbicidal rating IPOHE ([8]; rate 0.1250 kg/ha) | Preemergence herbicidal rating GLXMAW ([9]; rate 0.0156 kg/ha) | Preemergence herbicidal rating GLXMAW ([9]; rate 0.0313 kg/ha) | herbicidal effect rating, CYPIR (CYPIR (Rice Flatsedge); 0.0313 kg/ha) | Preemergence herbicidal rating CASOB (CASOB (Sicklepod) [10]; rate 0.0156 kg/ha) | Preemergence herbicidal rating CASOB (CASOB (Sicklepod) [10]; rate 0.0313 kg/ha) | Preemergence herbicidal rating CASOB (CASOB (Sicklepod) [10]; rate 0.0625 kg/ha)
6.0: herbicidal effect rating, CYPIR (CYPIR (Rice Flatsedge); 0.2500 kg/ha) | herbicidal effect rating, MOOVA (MOOVA (Monochoria); 0.0313 kg/ha)
9.0: herbicidal rating IPOHE ([3]; rate 0.0158 kg/ha) | herbicidal rating IPOHE ([3]; rate 0.0315 kg/ha) | herbicidal rating IPOHE ([3]; rate 0.0630 kg/ha) | Preemergence herbicidal rating ABUTH (ABUTH (Velvetleaf); rate 0.2500 kg/ha) | herbicidal effect rating, CYPSE (CYPSE (Flatsedge); 0.1250 kg/ha) | herbicidal effect rating, CYPSE (CYPSE (Flatsedge); 0.2500 kg/ha) | Preemergence herbicidal rating IPOHE ([8]; rate 0.2500 kg/ha) | herbicidal effect rating, MOOVA (MOOVA (Monochoria); 0.1250 kg/ha) | herbicidal effect rating, MOOVA (MOOVA (Monochoria); 0.2500 kg/ha)
1.0: Preemergence herbicidal rating SETVI (SETVI (Foxtail, Green); rate 0.0156 kg/ha) | Preemergence herbicidal rating SETVI (SETVI (Foxtail, Green); rate 0.0625 kg/ha) | herbicidal rating ECHCG (ECHCG (Barnyardgrass) [4]; rate 0.0158 kg/ha) | herbicidal rating ECHCG (ECHCG (Barnyardgrass) [4]; rate 0.0630 kg/ha) | herbicidal rating CASOB (CASOB (Sicklepod) [5]; rate 0.0315 kg/ha) | herbicidal rating CASOB (CASOB (Sicklepod) [5]; rate 0.0630 kg/ha) | Preemergence herbicidal rating ABUTH (ABUTH (Velvetleaf); rate 0.1250 kg/ha) | Preemergence herbicidal rating ZEAMX (ZEAMX (Corn, Field) [7]; rate 0.1250 kg/ha) | Preemergence herbicidal rating GLXMAW ([9]; rate 0.0625 kg/ha) | Preemergence herbicidal rating GLXMAW ([9]; rate 0.1250 kg/ha) | Preemergence herbicidal rating GLXMAW ([9]; rate 0.2500 kg/ha) | Preemergence herbicidal rating CASOB (CASOB (Sicklepod) [10]; rate 0.1250 kg/ha) | Preemergence herbicidal rating CASOB (CASOB (Sicklepod) [10]; rate 0.2500 kg/ha)
7.0: Preemergence herbicidal rating GALAP (GALAP (Galium); rate 0.2500 kg/ha) | herbicidal effect rating, CYPSE (CYPSE (Flatsedge); 0.0625 kg/ha) | herbicidal effect rating, MOOVA (MOOVA (Monochoria); 0.0625 kg/ha)
4.5: herbicidal rating ZEAMX (ZEAMX (Corn, Field) [11]; rate 0.0158 kg/ha)
2.0: herbicidal rating ECHCG (ECHCG (Barnyardgrass) [4]; rate 0.0315 kg/ha) | herbicidal effect rating, CYPIR (CYPIR (Rice Flatsedge); 0.0625 kg/ha)
5.0: herbicidal effect rating, CYPIR (CYPIR (Rice Flatsedge); 0.1250 kg/ha) | herbicidal rating ZEAMX (ZEAMX (Corn, Field) [11]; rate 0.0315 kg/ha) | herbicidal rating ZEAMX (ZEAMX (Corn, Field) [11]; rate 0.0630 kg/ha)
